Source: US20260041679A1, “METHOD OF TREATING HYPERTENSION WITH THE ALDOSTERONE SYNTHASE INHIBITOR BAXDROSTAT” (CINCOR PHARMA, INC., priority 2022, published 2026)

Assay: Study 124 Part 1: safety, adverse events and serum potassium
Assay type: in vivo, human
From the text: The safety objectives for both Parts 1 and 2 are to evaluate vital signs, standing blood pressure, heart rate, physical examinations, ECG, body weight, and clinical laboratory assessments, including standard safety chemistry panel, hematology, coagulation, and urinalysis.

[1] = Part 1, 0.5 mg baxdrostat, n = 63
[2] = Part 1, 1 mg baxdrostat, n = 62
[3] = Part 1, 2 mg baxdrostat, n = 60

CCC(=O)N[C@@H]1CCCc2c(-c3ccc4c(c3)CCC(=O)N4C)cncc21 [baxdrostat, (R)—N-(4-(1-methyl-2-oxo-1,2,3,4-tetrahydroquinolin-6-yl)-5,6,7,8-tetrahydroisoquinolin-8-yl) propionamide]
share of patients receiving baxdrostat with potassium>6 mEq/L (Part 1): ~1.6%
treatment emergent SAEs (Part 1): two treatment emergent SAEs (2 patients) and neither were deemed related to baxdrostat
patients with isolated instances of moderately elevated potassium>6 mEq/L (Part 1, all baxdrostat doses): Three
AESI, % [1]: 1.6%
AESI, e - Number of events [1]: 1
AESI, n - Number of subjects [1]: 1
SAEs, % [1]: 0.0%
SAEs, e - Number of events [1]: 0
SAEs, n - Number of subjects [1]: 0
TEAEs Drug-Related, % [1]: 6.3%
TEAEs Drug-Related, e - Number of events [1]: 6
TEAEs Drug-Related, n - Number of subjects [1]: 4
TEAEs Leading to death, % [1]: 0.0%
TEAEs Leading to death, e - Number of events [1]: 0
TEAEs Leading to death, n - Number of subjects [1]: 0
TEAEs Leading to dosing discontinuation, % [1]: 1.6%
TEAEs Leading to dosing discontinuation, e - Number of events [1]: 1
TEAEs Leading to dosing discontinuation, n - Number of subjects [1]: 1
TEAEs Leading to study discontinuation, % [1]: 1.6%
TEAEs Leading to study discontinuation, e - Number of events [1]: 1
TEAEs Leading to study discontinuation, n - Number of subjects [1]: 1
TEAEs, % [1]: 28.6%
TEAEs, e - Number of events [1]: 30
TEAEs, n - Number of subjects [1]: 18
AESI, % [2]: 1.6%
AESI, e - Number of events [2]: 1
AESI, n - Number of subjects [2]: 1
SAEs, % [2]: 1.6%
SAEs, e - Number of events [2]: 1
SAEs, n - Number of subjects [2]: 1
TEAEs Drug-Related, % [2]: 9.7%
TEAEs Drug-Related, e - Number of events [2]: 10
TEAEs Drug-Related, n - Number of subjects [2]: 6
TEAEs Leading to death, % [2]: 0.0%
TEAEs Leading to death, e - Number of events [2]: 0
TEAEs Leading to death, n - Number of subjects [2]: 0
TEAEs Leading to dosing discontinuation, % [2]: 3.2%
TEAEs Leading to dosing discontinuation, e - Number of events [2]: 2
TEAEs Leading to dosing discontinuation, n - Number of subjects [2]: 2
TEAEs Leading to study discontinuation, % [2]: 0.0%
TEAEs Leading to study discontinuation, e - Number of events [2]: 0
TEAEs Leading to study discontinuation, n - Number of subjects [2]: 0
TEAEs, % [2]: 30.6%
TEAEs, e - Number of events [2]: 42
TEAEs, n - Number of subjects [2]: 19
AESI, % [3]: 6.7%
AESI, e - Number of events [3]: 4
AESI, n - Number of subjects [3]: 4
SAEs, % [3]: 1.7%
SAEs, e - Number of events [3]: 1
SAEs, n - Number of subjects [3]: 1
TEAEs Drug-Related, % [3]: 10.0%
TEAEs Drug-Related, e - Number of events [3]: 8
TEAEs Drug-Related, n - Number of subjects [3]: 6
TEAEs Leading to death, % [3]: 1.7%
TEAEs Leading to death, e - Number of events [3]: 1
TEAEs Leading to death, n - Number of subjects [3]: 1
TEAEs Leading to dosing discontinuation, % [3]: 3.3%
TEAEs Leading to dosing discontinuation, e - Number of events [3]: 2
TEAEs Leading to dosing discontinuation, n - Number of subjects [3]: 2
TEAEs Leading to study discontinuation, % [3]: 1.7%
TEAEs Leading to study discontinuation, e - Number of events [3]: 1
TEAEs Leading to study discontinuation, n - Number of subjects [3]: 1
TEAEs, % [3]: 23.3%
TEAEs, e - Number of events [3]: 27
TEAEs, n - Number of subjects [3]: 14
hyperkalemia leading to trial discontinuation (active Baxdrostat groups): No instances of hyperkalemia led to trial discontinuation
